Test results as given in patent publication US11613552B2, “Pharmaceutical agents, compositions, and methods relating thereto” (Alltech, Inc., priority 2017, dated 2023).

Key:
Pdk1/Akt/Foxo1 = test: Western blot of Pdk1/Akt/Foxo1 in skeletal muscles of Lepr^db/db mice; assay type: in vivo, mouse; settings: 0.136 mg/kg ip daily, 52 days (FIG. 18)
Description: Male Lepr^db/db mice (C57BL/6J strain, purchased from The Jackson Laboratory) at 38 days of age were intraperitoneally injected daily with physiological saline ([…]) containing 0.2% DMSO or 0.136 mg of Compound #43 per kilogram body weight, diluted in the sterile physiological saline) for 52 days. After the treatment, gastrocnemius skeletal muscle samples were collected and stored at −80° C.
(§1) Frozen skeletal muscles were minced in sterile ice-old PBS containing complete proteinase and phosphatase inhibitors (Thermo-Fisher Scientific, Waltham, Mass.) and subjected to homogenization using a tissue homogenizer (Thermo-Fisher Scientific, Waltham, Mass.). These tissue homogenates were diluted in Themo-Fisher's RIPA buffer (1 part homogenate/2 part of RIPA buffer) containing complete proteinase/phosphatase inhibitors to extract the proteins. Proteins in the homogenates were extracted in RIPA buffer at 4° C. overnight. These overnight-extracted protein/tissue lysates were centrifuged at 12000×g for 30 min at 4° C., and the protein levels in the supernatant of these tissue lysates were determined using the Pierce Micro-BCA protein assay kit (Thermo Scientific-Piece Biotechnology, Rockford, Ill.) according to the manufacturer's protocol.
One hundred micrograms of skeletal muscle proteins were subjected to SDS-PAGE gel separation and then transferred to PVDF membranes, as described previously (Reddy et al. 2008 Science). Membranes were blocked in a phosphate-buffered saline (PBS) containing 5% (w/v) of bovine serum albumin (Sigma, St. Louis, Mo.) and incubated with specific primary antibodies followed by the incubation with HRP-conjugated anti-mouse or anti-rabbit secondary antibodies (1:5000 dilution, Cell Signaling Inc.). All primary antibodies were purchased from Cell Signaling Inc, except the antibodies against β-tubulin (LI-COR bioscience). Positive signals on the membrane blots were detected using Amersham's enhanced chemiluminescence Western Blotting Prime Detection reagents (GE Healthcare Lifescience, Pittsburgh, Pa.). Images of these luminescence signals on the membrane blots were captured using the LI-COR Odyssey Fc Image system (Lincoln, Nebr.). The same membrane blot was stripped and re-blotted with another antibody as described in the GE WB ECL-prime-detection protocol (GE healthcare Lifescience, Pittsburgh, Pa.). Protein band densities in the Western blots were determined using the NIH ImageJ software and then normalized by β-tubulin level in each sample. Data are presented as mean±SEM of 5 animal samples.

Insrβ = molecular target: T1, Insrβ (Mus musculus, UniProt P15208); test: Western blot of Insrβ phosphorylation in skeletal muscle of Lepr^db/db mice; assay type: in vivo; settings: 0.136 mg/kg ip daily
T1 construct: gastrocnemius skeletal muscle and liver samples were collected and stored at −80° C; from tissue; host or cells: gastrocnemius skeletal muscle (A22) and liver (A24) of Lepr db/db mice
T1 sequence (P15208 753-1372 limits assumed): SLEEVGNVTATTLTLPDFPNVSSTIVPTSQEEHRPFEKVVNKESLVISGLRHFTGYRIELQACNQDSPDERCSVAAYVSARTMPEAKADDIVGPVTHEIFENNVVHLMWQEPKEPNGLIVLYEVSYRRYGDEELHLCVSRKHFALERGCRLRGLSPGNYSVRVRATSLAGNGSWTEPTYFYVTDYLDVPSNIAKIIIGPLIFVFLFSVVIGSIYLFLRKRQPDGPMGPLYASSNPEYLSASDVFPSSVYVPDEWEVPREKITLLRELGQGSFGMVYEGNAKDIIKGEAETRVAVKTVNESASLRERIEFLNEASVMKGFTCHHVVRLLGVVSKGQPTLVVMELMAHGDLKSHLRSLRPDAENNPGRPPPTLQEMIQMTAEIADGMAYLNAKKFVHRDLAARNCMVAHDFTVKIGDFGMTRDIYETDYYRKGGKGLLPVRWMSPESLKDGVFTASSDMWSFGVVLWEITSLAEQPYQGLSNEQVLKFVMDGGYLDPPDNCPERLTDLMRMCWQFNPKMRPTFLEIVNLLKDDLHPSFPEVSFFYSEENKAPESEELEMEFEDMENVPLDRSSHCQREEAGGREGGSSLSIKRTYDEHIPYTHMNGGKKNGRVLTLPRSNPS
T1 sequence (P15208 28-748 partner limits assumed): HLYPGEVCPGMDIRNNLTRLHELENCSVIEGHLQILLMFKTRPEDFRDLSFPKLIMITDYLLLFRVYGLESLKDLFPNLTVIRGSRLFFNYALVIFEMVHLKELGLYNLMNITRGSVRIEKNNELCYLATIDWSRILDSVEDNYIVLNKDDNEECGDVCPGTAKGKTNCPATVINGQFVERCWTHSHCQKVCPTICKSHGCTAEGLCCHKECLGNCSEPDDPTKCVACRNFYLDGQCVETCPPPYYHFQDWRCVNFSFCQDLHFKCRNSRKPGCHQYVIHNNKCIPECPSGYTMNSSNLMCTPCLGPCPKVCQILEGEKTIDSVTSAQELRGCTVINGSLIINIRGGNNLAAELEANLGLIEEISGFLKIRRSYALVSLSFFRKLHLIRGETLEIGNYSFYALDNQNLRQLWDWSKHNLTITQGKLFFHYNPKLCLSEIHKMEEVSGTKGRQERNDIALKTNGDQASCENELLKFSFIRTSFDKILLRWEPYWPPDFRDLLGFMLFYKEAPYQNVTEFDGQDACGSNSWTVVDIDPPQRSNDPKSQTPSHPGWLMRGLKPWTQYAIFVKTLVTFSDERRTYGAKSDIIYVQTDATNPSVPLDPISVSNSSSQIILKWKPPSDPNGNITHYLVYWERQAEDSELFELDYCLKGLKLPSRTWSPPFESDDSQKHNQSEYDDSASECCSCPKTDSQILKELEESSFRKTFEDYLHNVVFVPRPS
Description: Male Lepr^db/db mice (C57BL/6J strain, purchased from The Jackson Laboratory) at postnatal day 38 were intraperitoneally injected daily with physiological saline ([…]) containing 0.2% DMSO, or 0.136 mg of Compound #43 per kilogram body weight, diluted in the sterile physiological saline) for 52 days. After the treatment, gastrocnemius skeletal muscle and liver samples were collected and stored at −80° C.
as §1, with “muscle and liver tissues” for “muscles”, “Themo-Fisher's premade” for “Themo-Fisher's”, “protocol. […]” for “protocol.”

C[Se]C[C@H]1O[C@@H](n2cnc3c(N)ncnc32)C(OC(C)=O)C1OC(C)=O (stereo partly drawn) [Compound #43, Adenosine, 5′-Se-methyl-5′-selino-, 2′,3′-diacetate]
pAkt protein levels in skeletal muscle (Pdk1/Akt/Foxo1): significantly elevated
pFoxo1 protein levels in skeletal muscle (Pdk1/Akt/Foxo1): significantly elevated
total Akt and Foxo1 protein levels in skeletal muscle (Pdk1/Akt/Foxo1): no significant change
pPdk1 protein levels in skeletal muscle (Pdk1/Akt/Foxo1; P=0.11): approached statistical significance
increase of phosphorylated Insrβ (Tyrosine 1146) in skeletal muscle (Insrβ; 52 days (FIG. 20B)): ~2.5 fold
total Insrβ protein levels in skeletal muscle (Insrβ; 52 days (FIG. 20C)): no significant change of total Insrβ protein levels
